From patent publication US8513409B2, “Introverted CB[n] compounds” (University of Maryland, priority 2005, dated 2013)
Each block holds one compound with its values, some of them ahead of it.

What was measured:
[1] = Solubility of CB[n] in water, aqueous MeOH, HCl and Na2SO4 solutions; type: physicochemical; conditions: for solubility in 50% aqueous MeOH solution (v/v): 50% aqueous MeOH (v/v)
Procedure: CB[5]. […] By washing the crude solids repeatedly with large volumes of water a mixture of CB[5] and CB[7] was isolated. […] The solubility of CB[7] is less than 4 mg/mL in this solution. By extracting the solid mixture of CB[5] and CB[7] with 50% aq. MeOH CB[5] is separated from CB[7].
CB[8]. […] By washing the crude mixture of CB[6], CB[8], CB[5]@CB[10], introverted CB[6], and CB[8] with 3 M HCl CB[8] is isolated as an insoluble solid.
Introverted CB[6]. […] Na2SO4 which allows it to be isolated as an insoluble solid by washing and filtration.
Subsequent purification. The separation of each component (CB[5], CB[6], CB[7], CB[8], and iCB[6]) from Crop 1 and Crop 2 was enabled due to their differential solubility in HCl solutions. • CB[5] and CB[7]. […] By washing the crude mixture of CB[6], Cb[8], and iCB[6] with 3.5 M HC1 it is possible to isolate Cb[8] as an insoluble solid. • iCB[6] and CB[6]. CB[6] and iCB[6] were separated by fractional crystallization from different concentration HC1 solutions. For example, the initial CB[6]/iCB[6] mixture was recrystallized from a minimum volume of conc. HC1. The filtrate is enriched in iCB[n]; adding the filtrate to MeOH gives the precipitate which is filtered and dried. The solid now enriched in iCB[6] is recrystallized from 17.5% HC1 which gives CB[6] as a solid and filtrate further enriched in iCB[6]. In this manner, the ratio of iCB[6];CB[6] is raised to ≈80:20. At this point, the mixture is dissolved in a minimum of conc. HC1. To this solution is added enough H2N(CH2)6NH2 to complex all of the CB[6] (≈25%). This solution is then diluted 5-fold with H20. The precipitate is isolated by centrifugation and washed several times with H2O which yields iCB[6] as a white solid in 2% overall yield.

[2] = conc. HCl 100° C., reported by Day and co-workers; cited from earlier work
[3] = 1H NMR competition of CB[6] and i-CB[6] (1:1) for guest 1; type: binding; conditions: slight excess of 1 added to CB[6] and i-CB[6] (1:1)
Procedure: (§1) FIG. 6 illustrates ^1HNMR spectra recorded for: a)) i-CB[6], CB[6] and 1 in a ratio of 1:1:2 (0.5M NaCl), and b) i-CB[7], 1 and 2 in a ratio of 1:1:1 (500 MHz, D2O), RT).
(§2) Because of their smaller cavities and more open portals i-CB[6] and i-CB[7] bind most guest molecules less tightly than their CB[n] counterparts do. For example, when a light excess of 1 is added to a solution containing CB[6] and i-CB[6] Alkyl ammonium ions such as 2 are known to bind tightly to CB[6] with values of Ka in the μM range. In contrast, 2 bind less strongly to i-CB[6] […] Similarly, i-CB[7] retains the ability to bind to guests commonly bound to CB[7]1,8 (e.g. 1.2, and (ferrocenemethyl)trimethylammonium ion (3)) but with lower affinity and higher kinetic liability. The association constants (Ka) for the guests 1, 2, and 3 with i-CB[7] measured by isothermal titration calorimetry (ITC) are (9±1)×10^6 M^−1, (8.8±0.9)×10^5 M^−1, and (2.2±0.1)×10^6 M^−1, respectively, which are 2 to 6 order of magnitude lower than those with CB[7].

[4] = Isothermal titration calorimetry of i-CB[7] with guest 1; type: binding; conditions: ITC, water, 30° C.
Procedure: as §2
(§3) General. […] Melting points were measured on a Meltemp apparatus in open capillary tubes and are uncorrected. IR spectra were recorded on a Nicolet Magna or on a Perkin Elmer Spectrum GX FT-IR spectrophotometers as KBr pellets and are reported in cm^−1. NMR spectra were measured on a Bruker AM400 or on a Bruker DRX500 spectrometers operating at 400 or 500 MHz for ^1H and 100 or 125 MHz for ^13C. […] The formation constants for the inclusion of several guests in iCB[7] were determined by isothermal titration calorimetry using a VP-ITC instrument from MicroCal. […]

[5] = Isothermal titration calorimetry of i-CB[7] with guest 2; type: binding; conditions: ITC, water, 30° C.
Procedure: as §2, §3

[6] = Isothermal titration calorimetry of i-CB[7] with guest 3; type: binding; conditions: ITC, water, 30° C.
Procedure: FIG. 23 is a thermogram (top) and binding isotherm (bottom) of (ferrocenemethyl) trimethyl ammonium in complexing with i-CB[7] at 303K.
Because of their smaller cavities and more open portals i-CB[6] and i-CB[7] bind most guest molecules less tightly than their CB[n] counterparts do. For example, when a light excess of 1 is added to a solution containing CB[6] and i-CB[6] Alkyl ammonium ions such as 2 are known to bind tightly to CB[6] with values of Ka in the μM range. In contrast, 2 bind less strongly to i-CB[6] […] The association constants (Ka) for the guests 1, 2, and 3 with i-CB[7] measured by isothermal titration calorimetry (ITC) are (9±1)×10^6 M^−1, (8.8±0.9)×10^5 M^−1, and (2.2±0.1)×10^6 M^−1, respectively, which are 2 to 6 order of magnitude lower than those with CB[7].
as §3

[7] = 1H NMR competition of guests 1 and 2 for i-CB[7]; type: binding; conditions: 1 and 2 in ratio 1:1:1
Source text: as §1
For example, i-CB[7] binds aromatic guest 1 more strongly than linear aliphatic guest 2. […] Thus, the inverted glycoluril unit modulates guest binding affinity and rates of dissociation, both of which are of critical importance in the creation of CB[n] based molecular machines.

[8] = Stability of CB[n] and i-CB[n] on heating in acid (product resubmission); type: physicochemical; conditions: purified compound heated in conc. DCl
Source text: The fact that the isomerization of methylene bridged glycoluril dimmers follows mechanism 3 is not only useful in the synthesis of our compounds, but is important for the tailored synthesis of CB[n] and its derivatives. For example, Day and co-workers have recently shown that heating purified CB[8] in conc. […] (Scheme 3). In contrast, pure CB[5], CB[6], and CB[7] are stable under these conditions. […] This type of reaction would likely follow a pathway related to mechanism 1. […] In aqueous acid, it is likely that H2O can compete with the internal N and O nucleophiles of mechanism 3 for the capture of 19 (Scheme 2), effectively forcing fragmentation of the methylene bridges by a variation of mechanism 1. In the absence of competing nucleophiles, under anhydrous acidic conditions, CB[n] (n>8) and derivatives display enhanced stability. This facilitates the preparation of higher CB[n] compounds in a controllable manner when using anhydrous acidic conditions where water-sensitive functional groups are present. If such groups are not present acidic aqueous conditions may be used.
By “anhydrous acidic conditions,” we mean that in initial attempts “standard conditions” (ClCH2CH2Cl, anh. PTSA, reflux) are used, and if solubility problems occur then neat anhydrous PTSA (m.p. 38° C.) and/or CH3SO3H may be used. Based on results, CB[8] is stable to these conditions as depicted in Scheme 3. […]

solubility in 50% aqueous MeOH solution (v/v) [1]: about 33 mg/mL
solubility in water [1]: moderate solubility
Compound: O=C1N2CN3C(=O)N4CN5C(=O)N6CN7C(=O)N8CN9C(=O)N%10CN1C1C2N2CN%11C(=O)N(CN%12C(=O)N(CN%13C(=O)N(CN%14C(=O)N(CN1C2=O)C%10C9%14)C8C7%13)C6C5%12)C4C3%11 (stereo not drawn) [CB[5]]
stability on heating in conc. HCl [2]: stable

solubility in 3 M HCl solution ([1]; 3 M HCl): appreciable solubility
solubility in 3.5 M HCl solution ([1]; 3.5 M HCl): appreciable solubility
Compound: O=C1N2CN3C(=O)N4CN5C(=O)N6CN7C(=O)N8CN9C(=O)N%10CN%11C(=O)N%12CN1C1C2N2CN%13C(=O)N(CN%14C(=O)N(CN%15C(=O)N(CN%16C(=O)N(CN%17C(=O)N(CN1C2=O)C%12C%11%17)C%10C9%16)C8C7%15)C6C5%14)C4C3%13 (stereo not drawn) [CB[6]]
share of host that forms a complex with guest 1 [3]: almost all
stability on heating in conc. HCl [2]: stable

solubility in 50% aqueous MeOH solution (v/v) [1]: less than 4 mg/mL
solubility in water [1]: moderate solubility
Compound: O=C1N2CN3C(=O)N4CN5C(=O)N6CN7C(=O)N8CN9C(=O)N%10CN%11C(=O)N%12CN%13C(=O)N%14CN1C1C2N2CN%15C(=O)N(CN%16C(=O)N(CN%17C(=O)N(CN%18C(=O)N(CN%19C(=O)N(CN%20C(=O)N(CN1C2=O)C%14C%13%20)C%12C%11%19)C%10C9%18)C8C7%17)C6C5%16)C4C3%15 (stereo not drawn) [CB[7]]
stability on heating in conc. HCl [2]: stable

Compound: i-CB[7]
association constant (Ka) for guest 1 [4]: (9±1)×10^6 M^−1
association constant (Ka) for guest 2 [5]: (8.8±0.9)×10^5 M^−1
association constant (Ka) for guest 3 [6]: (2.2±0.1)×10^6 M^−1
guest preference in presence of 1 equiv 1 and 2 [7]: the majority of i-CB[7] forms a complex with 1
outcome of heating in conc. DCl [8]: a 4:1 mixture of CB[6], and CB[7] was obtained
